According to patent US9801380B2, “Low VOC gibberellin formulations” (Valent BioSciences Corporation, priority 2013, dated 2017):

Experiment: Stability tests: observation for solubility after mixing
Details: 5.95% GA3 TGAI
Experimental: The stability tests were performed as follows. The solvent was charged in a 150 mL glass beaker containing a magnetic stir bar. The solvent was warmed on a hot plate while stirring. The polysorbate surfactant was charged when the solvent temperature reached 30 to 38 degrees Celsius. The formulations were mixed until they were solubilized (1 to 4 minutes). Then the GA3 TGAI was added under stirring and the temperature was raised to 38 to 41 degrees Celsius. The heat was discontinued and the formulations were mixed for 30 to 50 minutes. The formulations were then observed for solubility.

With `C=C1C[C@]23C[C@@]1(O)CC[C@H]2[C@@]12C=C[C@H](O)[C@@](C)(C(=O)O1)[C@H]2[C@@H]3C(=O)O` [GA3, gibberellic acid] as the compound, how does the “Solubility of GA3 in the formulation” value (Formulation B (triethyl citrate)) read?
The value was “not soluble”.

What about the “Solubility of GA3 in the formulation” value (Formulations A and D (PEG 300, PEG 400)) of the same compound?
Its value is “soluble”.
